# Test system: pediatric subjects with acute hypoxemic respiratory failure (AHRF)
# Experiment: Pediatric AHRF study: adverse events, serious adverse events, deaths, discontinuations
# Type: in vivo, human
# Details: 5 ppm
# Procedure: This was a prospective, multicenter, randomized, double-blind, placebo-controlled, parallel-group study of the safety and efficacy of inhaled nitric oxide in pediatric subjects with acute hypoxemic respiratory failure (AHRF). The subjects were randomized to receive either 5 ppm inhaled nitric oxide or placebo.
# Nitric Oxide for inhalation at 5 ppm was administered continuously into the inspiratory limb of the ventilator circuit in mechanically ventilated subjects using a blinded version of the INOvent® delivery system.
# Subjects received 100% treatment gas (nitric oxide 5 ppm or placebo [nitrogen gas]) until Day 28 or extubation, whichever occurred first.
# This was a prospective, multicenter, randomized, double-blind, placebo-controlled, Phase III study to assess the effects of nitric oxide for inhalation in the treatment of acute hypoxic respiratory failure (AHRF) in pediatric subjects. The study population consisted of male and female pediatric subjects, aged 44 weeks postconceptional age to 16 years age, who were admitted to the pediatric intensive care unit (PICU) and who required intubation because of AHRF. The inclusion/exclusion criteria are described in the Patients section below.
# Standardized ventilatory management and weaning procedures were used. Ventilatory management was used based on an “open lung approach” using positive end-expiratory pressure (PEEP) to increase lung volume and limiting tidal volumes to reduce plateau pressures. Subjects received nitric oxide for inhalation at 5 ppm or placebo (100% Grade 5 nitrogen gas) into the inspiratory limb of the ventilator circuit using a blinded version of the INOvent® delivery system. The subjects were treated until Day 28 or extubation, whichever occurred first. Subjects were assessed daily using a spontaneous breathing trial, according to the institution's standard of care. Arterial blood gases (ABG), ventilator settings, methemoglobin, oxygenation index, systolic blood pressure, diastolic blood pressure, Pediatric Risk of Mortality (PRISM) III score, and subject positioning (prone or supine) were performed/recorded at specified times during the study. Selected centers also performed plasma cytokine assays, bronchoalveolar lavage fluid (BALF) assays, and a 6-month follow-up assessment.
# [1] = AE not suspected related to study treatment
# [2] = AE suspected related to study treatment
# [3] = AE with death as outcome, not suspected related to treatment
smiles,measurement,setting,value
"[N]=O [Nitric Oxide, nitric oxide]",Subdural hematoma,[1],0 (0.0) n (%)
same,Thrombocythemia,[1],1 (3.8%) n (%)
same,Thrombocytopenia,[1],0 (0.0) n (%)
same,Tracheitis,[1],2 (7.7%) n (%)
same,Unevaluable event,[1],2 (7.7%) n (%)
same,Urinary tract infection,[1],1 (3.8%) n (%)
same,"Urinary tract infection, fungal",[1],1 (3.8%) n (%)
same,Urine output decreased,[1],1 (3.8%) n (%)
same,White blood cell count increased,[1],0 (0.0) n (%)
same,Abdominal distension,[2],0 (0.0) n (%)
same,Acidosis,[2],0 (0.0) n (%)
same,Agitation,[2],0 (0.0) n (%)
same,Anemia,[2],0 (0.0) n (%)
same,Apnea,[2],0 (0.0) n (%)
same,Arrhythmia,[2],0 (0.0) n (%)
same,Ascites,[2],0 (0.0) n (%)
same,Bacteremia,[2],0 (0.0) n (%)
same,"Bacteria, blood",[2],0 (0.0) n (%)
same,"Bacteria, sputum",[2],0 (0.0) n (%)
same,Bladder distension,[2],0 (0.0) n (%)
same,Bradycardia,[2],0 (0.0) n (%)
same,Brain edema,[2],0 (0.0) n (%)
same,Bronchoalveolar lavage,[2],0 (0.0) n (%)
same,C-reactive protein increased,[2],0 (0.0) n (%)
same,Cardiac arrest,[2],0 (0.0) n (%)
same,Cerebral artery occlusion,[2],0 (0.0) n (%)
same,Chest tube insertion,[2],0 (0.0) n (%)
same,Deep vein thrombosis,[2],0 (0.0) n (%)
same,Device failure,[2],0 (0.0) n (%)
same,Diabetic ketoacidosis,[2],0 (0.0) n (%)
same,Diarrhea,[2],0 (0.0) n (%)
same,Disseminated intravascular coagulation,[2],0 (0.0) n (%)
same,Empyema,[2],0 (0.0) n (%)
same,Feeding disorder,[2],0 (0.0) n (%)
same,Fungemia,[2],0 (0.0) n (%)
same,Fungus culture positive,[2],0 (0.0) n (%)
same,Fungus urine test positive,[2],0 (0.0) n (%)
same,Gastrointestinal hemorrhage,[2],0 (0.0) n (%)
same,Generalized edema,[2],0 (0.0) n (%)
same,Grangrene,[2],0 (0.0) n (%)
same,Hematuria,[2],0 (0.0) n (%)
same,Hemoglobinemia,[2],0 (0.0) n (%)
same,Hemolytic anemia,[2],0 (0.0) n (%)
same,Hemopneumothorax,[2],0 (0.0) n (%)
same,Hemorrhage,[2],0 (0.0) n (%)
same,Hemothorax,[2],0 (0.0) n (%)
same,Hepatic failure,[2],0 (0.0) n (%)
same,Hepatosplenomegaly,[2],0 (0.0) n (%)
same,Hyperammonemia,[2],0 (0.0) n (%)
same,Hypercalcemia,[2],0 (0.0) n (%)
same,Hypercapnia,[2],0 (0.0) n (%)
same,Hyperchloremia,[2],0 (0.0) n (%)
same,Hyperglycemia,[2],0 (0.0) n (%)
same,Hyperkalemia,[2],0 (0.0) n (%)
same,Hyperlipidemia,[2],0 (0.0) n (%)
same,Hypernatremia,[2],0 (0.0) n (%)
same,Hypertension,[2],0 (0.0) n (%)
same,Hypocalcemia,[2],0 (0.0) n (%)
same,Hypochloremia,[2],0 (0.0) n (%)
same,Hypokalemia,[2],0 (0.0) n (%)
same,Hypotension,[2],0 (0.0) n (%)
same,Hypothermia,[2],0 (0.0) n (%)
same,Hypoxia,[2],0 (0.0) n (%)
same,Intracranial pressure increased,[2],0 (0.0) n (%)
same,Labile blood pressure,[2],0 (0.0) n (%)
same,Leukocytosis,[2],0 (0.0) n (%)
same,"Lung infection, pseudomonal",[2],0 (0.0) n (%)
same,Medical device removal,[2],0 (0.0) n (%)
same,Metabolic acidosis,[2],0 (0.0) n (%)
same,Metabolic alkalosis,[2],0 (0.0) n (%)
same,Multi-organ failure,[2],0 (0.0) n (%)
same,Ocular icterus,[2],0 (0.0) n (%)
same,Oliguria,[2],0 (0.0) n (%)
same,Oxygen saturation decreased,[2],0 (0.0) n (%)
same,Pancreatitis,[2],0 (0.0) n (%)
same,Pleural effusion,[2],0 (0.0) n (%)
same,Pneumomediastinum,[2],0 (0.0) n (%)
same,Pneumonia,[2],0 (0.0) n (%)
same,"Pneumonia, aspergillus",[2],0 (0.0) n (%)
same,"Pneumonia, staphylococcal",[2],0 (0.0) n (%)
same,Pneumothorax,[2],0 (0.0) n (%)
same,Pruritus,[2],0 (0.0) n (%)
same,Pseudomonal sepsis,[2],0 (0.0) n (%)
same,Pulmonary hemorrhage,[2],0 (0.0) n (%)
same,Pulmonary hypertension,[2],0 (0.0) n (%)
same,Pyrexia,[2],0 (0.0) n (%)
same,Renal failure,[2],0 (0.0) n (%)
same,"Renal failure, acute",[2],0 (0.0) n (%)
same,Renal impairment,[2],0 (0.0) n (%)
same,Respiratory acidosis,[2],0 (0.0) n (%)
same,Respiratory failure,[2],0 (0.0) n (%)
same,Sepsis,[2],0 (0.0) n (%)
same,Skin injury,[2],0 (0.0) n (%)
same,Subdural hematoma,[2],0 (0.0) n (%)
same,Thrombocythemia,[2],0 (0.0) n (%)
same,Thrombocytopenia,[2],0 (0.0) n (%)
same,Tracheitis,[2],0 (0.0) n (%)
same,Unevaluable event,[2],0 (0.0) n (%)
same,Urinary tract infection,[2],0 (0.0) n (%)
same,"Urinary tract infection, fungal",[2],0 (0.0) n (%)
same,Urine output decreased,[2],0 (0.0) n (%)
same,White blood cell count increased,[2],0 (0.0) n (%)
same,Bradycardia,[3],1 (3.8%) n (%)
same,Brain edema,[3],0 (0.0) n (%)
same,Cardiac arrest,[3],0 (0.0) n (%)
same,Diabetic ketoacidosis,[3],0 (0.0) n (%)
same,Hemolytic anemia,[3],0 (0.0) n (%)
